According to US20090155228A1, “COMPOUNDS, KITS AND METHODS FOR CONFERRING CYTOPROTECTION” (priority 2006, published 2009):
Values joined by “and” are separate entries in the source; they are usually repeats but may differ in a detail not shown here. Equal values may be shown once.

Key:
[1] = patients treated with 4 mg RSG; cited from earlier work
[2] = system: ABCG2; test: RT-Q-PCR ABCG2 transcript level in monocyte-derived DCs; assay type: cell-based, human
Description: (§1) Cell culture and ligand treatment—Monocytes (98% CD14+) were obtained from buffy coats by Ficoll gradient centrifugation and immunomagnetic cell separation using anti-CD14-conjugated microbeads (VarioMACS; Miltenyi Biotec). […] Cells were cultured for 5 or 6 days (unless otherwise indicated) and the IL-4 and GM-CSF addition was repeated at day 3. Ligands or vehicle control (50% DMSO/ethanol) were added to the cell culture from the first day on. MonoMac-6 (MM6) cells were a kind gift of E. Duda (Biological Research Center, Szeged, Hungary).

[3] = system: FABP4; test: RT-Q-PCR FABP4 transcript level in monocyte-derived DCs; assay type: cell-based, human
Description: (§2) Cell culture and ligand treatment—Monocytes (98% CD14+) were obtained from buffy coats by Ficoll gradient centrifugation and immunomagnetic cell separation using anti-CD14-conjugated microbeads (VarioMACS; Miltenyi Biotec). DCs were prepared as described previously (Szatmari, I. et al. (2004) Immunity 21, 95-106). In brief, monocytes were resuspended into six-well culture dishes at a density of 1.5×10^6 cells/ml and cultured in RPMI 1640 supplemented with 10% FBS (Invitrogen), containing 800 U/ml GM-CSF (Leucomax) and 500 U/ml IL-4 (Peprotech). Cells were cultured for 5 or 6 days (unless otherwise indicated) and the IL-4 and GM-CSF addition was repeated at day 3. Ligands or vehicle control (50% DMSO/ethanol) were added to the cell culture from the first day on. MonoMac-6 (MM6) cells were a kind gift of E. Duda (Biological Research Center, Szeged, Hungary). These cells were cultured in RPMI 1640 supplemented with 10% FBS.

[4] = system: ABCA1; test: RT-Q-PCR ABCA1 mRNA level in DCs; assay type: cell-based, human; settings: DCs cultured 24 h, 1 μM RSG or 1 μM T0901317
Description: as §1

[5] = system: ABCG1; test: RT-Q-PCR ABCG1 mRNA level in DCs; assay type: cell-based, human; settings: DCs cultured 24 h, 1 μM RSG or 1 μM T0901317
Description: as §1

[6] = system: ABCG2; test: Flow cytometry of ABCG2 cell surface expression in DCs (5D3 antibody); assay type: cell-based, human; settings: DCs treated with RSG plus GW9662
Description: (§3) FACS analysis—Cell staining was performed using FITC- or PE-conjugated monoclonal antibodies: Labeled antibodies for flow cytometry included anti-CD1a-PE, CD1d-PE, CD80-PE, CD86-PE and isotype-matched controls (BD PharMingen). For the ABCG2 detection cells were fixed with 1% paraformaldehyde for 5 min, then incubated with unlabeled anti-ABCG2 (5D3) or isotype-matched control (R and D system) antibody for 30 min at 37° C., followed by staining with FITC-labeled anti-mouse antibody (BD PharMingen). The fluorescence of labeled cells was measured by using a FACSCalibur flow cytometer (Beckton Dickinson).

[7] = system: DCs; settings: MTT
Description: Cytotoxicity assay—Cytotoxicity assays were carried out using the MTT assay. Briefly, cells were plated in 96-well plates at a density of 10^5 cells per well. Mitoxantrone at various concentrations with or without KO143 was added to DCs and cells were incubated at 37° C. for 48 h. After incubation, cytotoxicity was assessed by using the MTT assay.

[8] = system: ABCG2; test: Mitoxantrone uptake in DCs by FACS; assay type: cell-based, human; settings: 30 min
Description: Measurement of mitoxantrone uptake by FACS analyses—Cells were resuspended in phenol red free HPMI medium containing the desired fluorescent compound (20 μM mitoxantrone) with or without KO143 (1 μM) and incubated at 37° C. for 30 min, Thereafter the cells were washed with cold HPMI and subjected to flow cytometric analyses. The cells were assessed for fluorescence intensity with a FACSCalibur cytometer (Beckton Dickinson).

[9] = system: CD80; test: FACS cell surface expression of CD80 on DCs; assay type: cell-based, human; settings: PPARg activated DCs (2.5 μM RSG) with 1 μM KO143
Description: as §3

[10] = system: CD1a; test: RT-Q-PCR CD1a transcript level in DCs; assay type: cell-based, human; settings: PPARg activated DCs with 1 μM KO143; relative to cyclophilin A
Description: as §2

[11] = system: CD1d; test: FACS cell surface expression of CD1d on DCs; assay type: cell-based, human; settings: PPARg activated DCs (2.5 μM RSG) with 1 μM KO143
Description: as §3

[12] = system: CD86; test: FACS cell surface expression of CD86 on DCs; assay type: cell-based, human; settings: PPARg activated DCs (2.5 μM RSG) with 1 μM KO143
Description: as §3

[13] = system: CD1a; test: FACS cell surface expression of CD1a on DCs; assay type: cell-based, human; settings: PPARg activated DCs (2.5 μM RSG) with 1 μM KO143
Description: as §3

[14] = system: ABCG2; test: Hoechst 33342 retention in DCs by CLSM and FACS; assay type: cell-based, human; settings: stimulated DCs, 1 μM KO143
Description: Measurement of Hoechst retention by CLSM and FACS—DCs were plated on Lab-Tek coverslip chambers. Cells were incubated with 0.5 μg/ml Hoechst 33342 for 1 h at 37° C. with or without KO143 (1 μM), then subjected to microscopic analysis. Hoechst fluorescence was measured on a Zeiss LSM 510 confocal microscope with a Plan-Apochromat 60× (NA 1.4) oil immersion objective using maximal detection pinhole diameter (1 mm) to get signal from the whole depth of the nucleus. Hoechst was excited by the 351 and 364 nm lines of an Ar ion laser, emission was measured through a 385-to-470 nm bandpass filter.
Hoechst content was also measured on a Becton Dickinson FACSVantage flow cytometer. Hoechst fluorescence was excited by the 351 and 364 nm lines and the blue and red Hoechst signals were detected through 402-to-446 nm and >650 nm filters, respectively.

[15] = system: PPARd; test: RT-Q-PCR PPARd transcript in MM6 cells after RNA interference; assay type: cell-based; settings: MM6 cells electroporated with 1.5 μg siRNA
Description: (§4) RNA interference—For siRNA delivery the AMAXA's Nucleofection technology (AMAXA) was applied. MM6 cells (1×10^6) were harvested and electroporated with 1.5 μg siRNA using the Cell line nucleofector kit V (AMAXA), program v-001. Applicants used a previously described PPARg specific siRNA sequence (Kelly, D. et al. (2004) Nat Immunol 5, 104-112): […]-d(TT) (SEQ ID NO. 10). As a negative control, Silencer Negative Control 1 siRNA (Ambion) was used.
as §2

[16] = system: FABP4; test: RT-Q-PCR FABP4 transcript in MM6 cells; assay type: cell-based; settings: after RSG alone or with LG268, 24 h
Description: as §4, §2

[17] = system: PPARg; test: RT-Q-PCR PPARg transcript in MM6 cells after RNA interference; assay type: cell-based; settings: MM6 cells electroporated with 1.5 μg siRNA
Description: as §4, §2

[18] = system: ABCG2; test: RT-Q-PCR ABCG2 transcript in MM6 cells; assay type: cell-based; settings: after RSG alone or with LG268, 24 h
Description: as §4, §2

[19] = target: T1, PPARgamma:RXRalpha heterodimer (Mus musculus (PPARg); Homo sapiens …, UniProt P37238;P19793 P37238:1-505,P19793:1-462); test: EMSA; supershift with anti-RXRa and anti-PPARg; competed by cold WT; settings: tags: T7 Quick TNT, full-length; label: 32P
[20] = target: T1, PPARgamma:RXRalpha heterodimer; test: competition; cold mutant at x10 and x20 does not compete; settings: tags: T7 Quick TNT, full-length
[21] = target: T1, PPARgamma:RXRalpha heterodimer; test: EMSA; supershift with both antibodies; some aspecific binding also in blank; settings: tags: T7 Quick TNT, full-length; label: 32P
[22] = ligand treated monocyte-derived DCs: 2.5 μM RSG, 100 nM GW347845X, 1 μM troglitazone, relative to 36B4

CN(CCOc1ccc(CC2SC(=O)NC2=O)cc1)c1ccccn1 (centres unmarked) [rosiglitazone]
Plasma concentration [1]: 50-350 ng/ml and 100-1000 nM

COC(=O)c1ccccc1N[C@@H](Cc1ccc(OCCc2nc(-c3ccccc3)oc2C)cc1)C(=O)O [GW347845X]
ABCG2 mRNA expression [2, 22]: induced | FABP4 mRNA expression [3, 22]: induced

O=S(=O)(c1ccccc1)N(CC(F)(F)F)c1ccc(C(O)(C(F)(F)F)C(F)(F)F)cc1 [T0901317]
ABCA1 mRNA expression [4]: profound upregulation | ABCG2 mRNA expression with LXR specific agonist ([2]; DCs cultured 24 h, 1 μM T0901317): did not affect | ABCG1 mRNA expression [5]: profound upregulation

O=C(Nc1ccccc1)c1cc([N+](=O)[O-])ccc1Cl [GW9662]
Cell surface expression of ABCG2 protein with PPARg antagonist [6]: reduced | Effect of PPARg antagonist on RSG induction of ABCG2 mRNA ([2]; DCs, 2.5 μM RSG with 5 μM GW9662): abolished the induction of ABCG2

O=C1c2c(O)ccc(O)c2C(=O)c2c(NCCNCCO)ccc(NCCNCCO)c21 [mitoxantrone]
Cell viability of control DCs ([7]; mitoxantrone 1.25 or 2.5 μg/ml, 48 h): induced cell death | Mitoxantrone accumulation in control DCs ([8]; 20 μM mitoxantrone): rapid

COc1ccc2c3c([nH]c2c1)[C@H](CC(C)C)N1C(=O)[C@H](CCC(=O)OC(C)(C)C)NC(=O)[C@@H]1C3 [KO143]
Cell surface expression of CD80 with ABCG2 inhibitor [9]: did not change | Effect of ABCG2 inhibitor on protection against mitoxantrone ([7]; RSG treated DCs with KO143, 48 h): removed this protective effect | CD1a mRNA expression with ABCG2 inhibitor [10]: reduced | Transcript level of FABP4 with ABCG2 inhibitor ([3]; PPARg activated DCs with 1 μM KO143, relative to cyclophilin A): did not change | Cell surface expression of CD1d with ABCG2 inhibitor [11]: did not change | Cell surface expression of CD86 with ABCG2 inhibitor [12]: did not change | Cell surface expression of CD1a with ABCG2 inhibitor [13]: slightly decreased | Effect of ABCG2 inhibitor on reduced Hoechst dye accumulation [14]: abolished the effect of the PPARg ligand treatment | Mitoxantrone extrusion by ABCG2 in activated cells ([8]; 1 μM KO143, 20 μM mitoxantrone): fully inhibited

GCCCTTCACTACTGTTGAC-d(TT) (sense GCCCTTCACTACTGTTGACTT; 3' dTdT overhang, further chemistry not given here) [PPARg-specific siRNA]
Expression of PPARd [15]: did not interfere | Induction of FABP4 in siRNA treated MM6 cells [16]: impaired induction | Expression of endogenous PPARg [17]: effectively inhibited | Induction of ABCG2 in siRNA treated MM6 cells [18]: impaired induction

B1: ABCG2 element A WT (dsDNA)
DNA 1: GGGGTGGAGGGCAGAGGGCAATGGC
DNA 2: GCCATTGCCCTCTGCCCTCCACCCC
binding result [19]: binds

B2: ABCG2 element B mut (dsDNA)
DNA 1: GGGCACATTGAGAAAGGTTAAGTGA
DNA 2: TCACTTAACCTTTCTCAATGTGCCC
binding result [20]: no binding

B3: ABCG2 element A mut (dsDNA)
DNA 1: GGGGTGGGCGAGAGAGGGCAATGGC
DNA 2: GCCATTGCCCTCTCTCGCCCACCCC
binding result [20]: no binding

B4: ABCG2 element B WT (dsDNA)
DNA 1: GGGCACAAGGTTAAAGGTTAAGTGA
DNA 2: TCACTTAACCTTTAACCTTGTGCCC
binding result [21]: binds

B5: ABCG2 element C WT (dsDNA)
DNA 1: GGTCATTAGGTCAGATGTTAGATGA
DNA 2: TCATCTAACATCTGACCTAATGACC
binding result [21]: binds

B6: ABCG2 element C mut (dsDNA)
DNA 1: GGTCATTTCGAGAGATGTTAGATGA
DNA 2: TCATCTAACATCTCTCGAAATGACC
binding result [20]: no binding
